Experimental data reported in PubChem BioAssay (NCI).
Several values for one entry are separate records, joined by “and”; a condition that tells them apart may be missing. Identical values can stand only once.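 In this assay, cells in 96-well plates receive the compound at five concentrations for 48 hours. Endpoints are linearly interpolated between the surrounding concentrations. GI50 = concentration required for 50% inhibition of growth. TGI: total growth inhibition.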

Key:
Assay in all cases: inhibition of tumour cell growth, NCI panel, 48 h
[1] = system: TK-10 renal
[2] = system: SK-MEL-2 melanoma
[3] = system: HCT-15 colon
[4] = system: NCI-H23 lung
[5] = system: IGROV1 ovarian
[6] = system: OVCAR-3 ovarian
[7] = system: SNB-75 CNS
[8] = system: T-47D breast
[9] = system: HS 578T breast
[10] = system: MCF7 breast

Compound	TGI [1]	TGI [2]	TGI [3]	TGI [4]	TGI [5]	TGI [6]	TGI [7]	GI50 [8]	TGI [8]	GI50 [1]	GI50 [2]	GI50 [3]	GI50 [4]	GI50 [9]	TGI [9]	GI50 [6]	GI50 [7]	GI50 [10]	TGI [10]	GI50 [5]
NCC(NC(=O)OCc1ccccc1)C(=O)O (configuration not stated)	> 50 µM	> 50 µM	> 50 µM	> 50 µM	> 50 µM	> 50 µM	> 50 µM													
CC1=C(c2cc(C(=O)Nc3ccc(Cl)c(Cl)c3)nc(N)n2)Sc2ccccc2N1	> 100 µM	> 100 µM	> 100 µM	> 100 µM	> 100 µM	> 100 µM	> 100 µM													
CC(=O)OC1C(CCl)OC(N=[N+]=[N-])C(OC(C)=O)C1OC(C)=O (configuration not stated)	> 100 µM	> 100 µM	> 100 µM	> 100 µM	> 100 µM	> 100 µM	> 100 µM													
CC[CH2][Sn]([Cl])([Cl])[CH2]CC	11.1 µM	25.6 µM	25.5 µM	22 µM		26.1 µM	20.1 µM	1.17 µM	3.36 µM	3.16 µM	10.8 µM	11.3 µM	9.13 µM	6.13 µM	28.4 µM	12.9 µM	6.24 µM	3.27 µM	16.5 µM	
N#CCC(=O)N/N=C1\C(=O)N(c2ccc(Cl)cc2)C(=O)C(=O)C1c1nc2ccccc2o1 (configuration not stated)	> 100 µM	> 100 µM	> 100 µM	> 100 µM	> 100 µM	> 100 µM	> 100 µM													
Clc1ccc(OC2CCO2)cc1Cl (configuration not stated)	> 100 µM		36.8 µM	> 100 µM	> 100 µM	> 100 µM	> 100 µM													
O=C(O)C#CCO	> 100 µM	> 100 µM	> 100 µM	> 100 µM	> 100 µM	> 100 µM	> 100 µM													
CNc1ccc(-c2cc(=O)oc3ccc(Cl)cc23)cc1	> 100 µM	0.0932 µM		> 100 µM	> 100 µM	0.27 µM				0.702 µM and 0.21 µM	0.215 µM and 0.0294 µM	0.0421 µM	0.311 µM and 0.219 µM	0.083 µM and 0.0725 µM		0.0342 µM		0.229 µM and 0.151 µM	> 100 µM	
O=c1c2ccccc2c(=O)c2c1cc(Cl)c1[nH]c3c([nH]c12)c(Cl)cc1c(=O)c2ccccc2c(=O)c13	> 100 µM	> 100 µM	> 100 µM	> 100 µM	> 100 µM	> 100 µM	> 100 µM													
COc1cccc(C2NC(=S)NC(C)=C2C(=O)Nc2ccc(F)c(Cl)c2)c1 (configuration not stated)	> 50 µM	> 50 µM	> 50 µM	47.7 µM	> 50 µM	> 50 µM		> 50 µM	> 50 µM	30.1 µM	29.3 µM	23.7 µM	18.5 µM	13.5 µM	40.2 µM	41.3 µM		20.2 µM	> 50 µM	27.6 µM
Cc1cc(C(=O)N2CCN(Cc3ccccc3)CC2)c(C)o1	> 100 µM		> 100 µM	> 100 µM	> 100 µM	> 100 µM	> 100 µM													
C[C@H]1CC(=O)C2=CCCC3(SCCCS3)[C@@H]2[C@H]1CO	> 100 µM	> 100 µM		> 100 µM	> 100 µM	> 100 µM	> 100 µM													
COC(=O)C1CCC(Nc2cccc(C(F)(F)F)c2)=N1 (configuration not stated)	> 100 µM	> 100 µM	> 100 µM	> 100 µM	> 100 µM	> 100 µM	> 100 µM													
O=C(O)C1CCCCN1C(=O)c1ccccc1 (configuration not stated)	> 100 µM		> 100 µM	> 100 µM	> 100 µM	> 100 µM	> 100 µM													
CCN(CC)CCNC(=O)c1cccc2cc3ccccc3nc12	31.8 µM	19.9 µM	32.5 µM		60.7 µM	61.5 µM	21.6 µM													
C=C(C)[C@@H]1CCC2=C[C@@H](OC2=O)[C@@H](C(=C)C)C(=O)/C=C(/C)C(=O)C1	90.9 µM		69.7 µM	60.4 µM	> 100 µM	57.8 µM	> 100 µM	51.1 µM	> 100 µM	31.3 µM		24.1 µM	22.6 µM	35.1 µM	> 100 µM	22.6 µM	> 100 µM	35.3 µM	> 100 µM	40.9 µM
CC[O-].Cc1ccc2cccc([O-])c2n1.Cc1ccc2cccc([O-])c2n1.Cc1ccc2cccc([O-])c2n1.[Ti+4]	> 83.9 µM	> 57.5 µM	> 100 µM	> 100 µM	> 100 µM	> 100 µM	> 100 µM			44.2 µM	22.9 µM	42.4 µM	> 63.5 µM			34.1 µM	63.8 µM			43.2 µM
COc1cc2cc[n+]3c4cc(OC)c(OC)cc4c(C)cc3c2cc1OC	> 100 µM	> 100 µM	> 100 µM	> 100 µM	> 100 µM	> 100 µM	> 100 µM													
O=C(O)CCC1(Br)CCCCC(Br)C1=O (configuration not stated)	> 100 µM	> 100 µM	> 100 µM	> 100 µM	> 100 µM	> 100 µM	> 100 µM													
COc1ccc(Cc2cnc(NC(=O)c3sc4ccccc4c3Cl)s2)cc1	> 100 µM	> 100 µM	> 100 µM	> 100 µM	> 100 µM		> 100 µM	0.768 µM	> 100 µM	4.31 µM	0.703 µM	0.378 µM	0.647 µM	0.336 µM	> 100 µM		0.2 µM	0.355 µM	> 100 µM	0.608 µM
CN1c2ccccc2S(=O)(=O)n2c(COc3ccc(Cl)cc3)nnc21	> 100 µM	> 100 µM	> 100 µM	> 100 µM	> 100 µM	> 100 µM			> 100 µM						> 100 µM				> 100 µM	
CN(c1ccccc1)C1C(=O)N(c2ccccc2)C1/C=C/c1ccccc1 (configuration not stated)	> 100 µM	> 100 µM		> 100 µM	> 100 µM	> 100 µM	> 100 µM													
